Several values for one entry are separate records, joined by “and”; a condition that tells them apart may be missing. Identical values can stand only once.
Tested on: Reticulitermes virginicus
Assay: standard choice box test of termite bait compositions with killing agents
Assay type: in vivo
Conditions: for Percent Survivorship: choice with untreated pine wood; for Amount of Wood Removed: untreated pine wood blocks; for termites killed: after 25 days
Procedure: The termite bait active ingredients or killing agents diflubenzuron, emamectin benzoate and thiamethoxam were tested for their efficacy. The termite species tested was Reticulitermes virginicus. The methodology employed was the standard “choice box” test used in Example 1 in which termites were released into a central chamber with untreated wood. The central chamber was connected, using Tygon tubing (2 mm I D), with peripheral feeding chambers containing a termite bait composition of the invention (microcrystalline cellulose powder having an average particle size of 20 micrometers and a termite killing agent) or untreated pine wood. Each replicate was given the choice of one gram of the treated cellulose powder or three blocks (1 cm) of untreated pine wood. At the end of 25 or 37 days, the number of live termites was counted. At the same time, the amount of pine wood or termite bait composition consumed was measured. The treatments were replicated two times.

[1] = 25 days in bioassay, 0.05% in microcrystalline cellulose powder

O=C(NC(=O)c1c(F)cccc1F)Nc1ccc(Cl)cc1 [Dimilin, diflubenzuron]
Percent Survivorship (37 days in bioassay, 0.5% in microcrystalline cellulose powder): 0.1% and 0%
control of termites (after 37 days exposure): almost complete control

CN1COCN(Cc2cnc(Cl)s2)/C1=N\[N+](=O)[O-] [Thiamethoxam, thiamethoxam]
Amount of Cellulose Powder Removed (600 h): 0.01 g
Percent Survivorship [1]: 0%
Amount of Wood Removed (25 days, 0.05%): 0 g
termites killed: 100%

emamectin benzoate
Percent Survivorship [1]: 0%
Amount of Cellulose Powder Removed (25 days, 0.05%, one gram of treated cellulose powder offered): 0.07 g and 0.13 g
Amount of Wood Removed (25 days, 0.05%): 0 g
termites killed: 100%
